Reference: patent US9387221B2, “SDF-1 binding nucleic acids and the use thereof in cancer treatment” (NOXXON Pharma AG, priority 2010, dated 2016)
{PEG40k} = 40 kDa polyethylene glycol

What was measured:
SDF-1 = SDF-1 (Homo sapiens, UniProt P48061); test: Inhibition of SDF-1-induced chemotaxis, BV-173 cells; format: cell-based; conditions: 3 nM human SDF-1
Description: The human T cell leukemia cell line Jurkat, the human leukemic monocyte lymphoma cell line U937, the human pre-B cell leukemia cell line BV-173 and human pre-B ALL cell line Nalm-6 express CXCR4. […] All cells used were obtained from the DSMZ (Braunschweig). All cell lines were cultivated at 37° C. and 5% CO2 in RPMI 1640 medium with Glutamax (Invitrogen, Karlsruhe, Germany) which contains 10% fetal bovine serum, 100 units/ml penicillin and 100 μg/ml streptomycin (Invitrogen, Karlsruhe, Germany). One day before the experiment, cells were seeded in a new T175 flask with a density of 0.3×10^6/ml (Jurkat, U937, BV-173) or 0.75×10^6/ml (Nalm-6), respectively.
For the experiment, cells were centrifuged (5 min at 300 g), resuspended, counted and washed once with 15 ml HBH (Hanks balanced salt solution containing 1 mg/ml bovine serum albumin and 20 mM HEPES; Invitrogen, Karlsruhe, Germany). Then the cells were resuspended at 1.33×10^6/ml (Jurkat, U937, BV-173) or 2.67×10^6/ml (Nalm-6), respectively. […]
For evaluation, fluorescence values were corrected for background fluorescence (no cells in well). Then the difference between experimental conditions with and without SDF-1 was calculated. The value for the sample without Spiegelmer (SDF-1 only) was set 100% and the values for the samples with Spiegelmer were calculated as percent of this. […]

RPMI-8226 MM cells = test: Chemosensitization coculture of RPMI-8226 MM cells with stromal MS-5 cells; format: cell-based; conditions: 100 nM NOX-A12, 1 μM F-ara-A, 40 hours
Description: In order to mimic the in vivo interaction of the BM microenvironment with leukemia cells, an in vitro coculture system with murine BM stromal MS-5 cells and the multiple myeloma (abbr. MM) cell line RPMI 8226 was established. Aim of the experiment was to show whether SDF-1 binding […] NOX-A12 sensitizes MM cells in coculture with stromal cells to effects of chemotherapeutic agents. Stromal MS-5 cells secreting SDF 1 were incubated with SDF-1 binding […] NOX-A12 or the non-functional revNOX-A12. The MM cell line RPMI-8226 was added to the confluent stromal cell layer. The cells were then incubated with the chemotherapeutic agent F ara A (Fludarabine) for 40 hours. Cell Viability viability was measured. The murine stromal cell line MS-5 (ACC 441) was purchased from the DSMZ, the Multiple Myeloma cell line RPMI8226 (CCL-155) was purchased from the ATCC. The Multiple Myeloma cell line RPMI8226 was maintained in RPMI medium 1640 GlutaMAX (Invitrogen) supplemented with 10% FBS (Biochrom) and penicillin-streptomycin, the MS-5 cells were cultured in MEM alpha GlutaMAX (Invitrogen) with 10% FBS and penicillin-streptomycin. […] Cell viability and cell number were determined by Flow Cytometry using the Guava EasyCyte 6HT/2L (Millipore).

[1] = test system: SDF-1 dose-dependent adhesion of Jurkat cells to fibronectin; test: Adhesion of Jurkat cells to fibronectin; format: cell-based, human; conditions: SDF-1 plus increasing concentrations of Spiegelmer
Description: The T cell leukemia Jurkat (ACC 282) were purchased from the DSMZ were maintained in RPMI medium 1640 GlutaMAX (Invitrogen) supplemented with 10% FBS (Biochrom) and penicillin-streptomycin. For the adhesion experiments 96-well culture plates were incubated with 10 μg/mL human fibronectin (R&D systems) in PBS for 2 hours at 37° C. […] The wells were then washed with RPMI medium. Jurkat cells from logarithmic growth phase were washed with RPMI medium (+0.1% BSA) and incubated with various concentrations of human SDF-1 (R&D systems) and NOX-A12 for 15 minutes at 37° C. NOX-A12 and SDF-1 were preincubated for 30 minutes. lx 105 stimulated Jurkat cells were seeded to the Fibronectin-coated 96-well plates and incubated for 30 minutes. The plates were then washed five times with RPMI medium. Attached cells were quantified by using Cell Titer Glo Reagent (Promega). Therefor, 50 μL RPMI medium was added to each well, followed by 50 μL of Cell Titer Glo Reagent. The plates were mixed for two minutes, followed by incubation at room temperature for 10 minutes. Cell number was quantified by relative luminescence signal.

Chain of SDF-1 (P48061 22-89): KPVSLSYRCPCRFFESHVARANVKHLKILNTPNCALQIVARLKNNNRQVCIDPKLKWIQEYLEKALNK

Substance: 5′-40 kDa-PEG-GCGUGGUGUGAUCUAGAUGUAUUGGCUGAUCCUAGUCAGGUACGC (5' {PEG40k}, sugars by position and backbone not given here) [NOX-A12]
- inhibition of SDF-1 induced chemotaxis (SDF-1): Inhibition
- cell viability of RPMI-8226 cells cocultured with stromal MS-5 cells (RPMI-8226 MM cells): only slightly affected
- reversal of SDF-1 effect on adhesion of Jurkat cells to fibronectin [1]: reverse this effect
